Experimental data published in patent US11643438B2, “Antimicrobial peptides and methods of use” (priority 2018, dated 2023).
Values after ≈ are worked out from the molar mass of the structure shown. Blank lines part the entries; values can stand above or below the compound they belong to. *1 amine or outer side, *2 acyl side, *3 side chain or, on linkers, in order; H or OH if unused. Where a SMILES comes first, the peptide text is derived from it. [ ]: non-standard residue; d: D form. X2 = CC[C@H](C)C[C@H](C)C[C@H](C)C[C@H](N[*:1])C(=O)[*:2]; X1 = CC[C@@H](C)[C@@H](O[*:1])C(=O)[*:2]; NMeVal(β-OH) = CN[C@H](C(=O)O)C(C)(C)O; aIle = CC[C@@H](C)[C@H](N)C(=O)O; NMeV = CN[C@H](C(=O)O)C(C)C; Sar = CNCC(=O)O

How the values were obtained:
[1] = tested on: Aspergillus fumigatus ATCC MYA-3627; assay: Effect of serum on antifungal activity (MIC80); assay type: cell-based
Protocol: (§1) Given that compound 1 contains a large number of hydrophobic amino acid residues that might promote non-specific protein binding resulting in a loss of in vivo activity, the efficacy of the compound was tested in the presence of blood serum against four fungal pathogens (C. albicans, C. auris, C. neoformans, and A. fumigatus) (Table 3).

[2] = tested on: Candida albicans SC5314; assay: Effect of serum on antifungal activity (MIC80); assay type: cell-based
Protocol: as §1

[3] = tested on: Candida auris 381; assay: Effect of serum on antifungal activity (MIC80); assay type: cell-based
Protocol: as §1

[4] = tested on: Cryptococcus neoformans H99; assay: Effect of serum on antifungal activity (MIC80); assay type: cell-based
Protocol: as §1

[5] = tested on: Candida albicans 1; assay: Antifungal MIC80 assay, clinical yeast isolates
[6] = tested on: Candida albicans 3; assay: Antifungal MIC80 assay, clinical yeast isolates
[7] = tested on: Candida albicans 8; assay: Antifungal MIC80 assay, clinical yeast isolates
[8] = tested on: Candida albicans 10; assay: Antifungal MIC80 assay, clinical yeast isolates
[9] = tested on: Candida albicans 24; assay: Antifungal MIC80 assay, clinical yeast isolates
[10] = tested on: Candida albicans 30; assay: Antifungal MIC80 assay, clinical yeast isolates
[11] = tested on: Candida glabrata 17; assay: Antifungal MIC80 assay, clinical yeast isolates
[12] = tested on: Candida glabrata 20; assay: Antifungal MIC80 assay, clinical yeast isolates
[13] = tested on: Candida parapsilosis 23; assay: Antifungal MIC80 assay, clinical yeast isolates
[14] = tested on: Candida parapsilosis 28; assay: Antifungal MIC80 assay, clinical yeast isolates
[15] = tested on: Candida auris 381; assay: Antifungal MIC80 assay, clinical yeast isolates
[16] = tested on: Candida auris 384; assay: Antifungal MIC80 assay, clinical yeast isolates
[17] = tested on: Candida auris 387; assay: Antifungal MIC80 assay, clinical yeast isolates
[18] = tested on: Candida auris 389; assay: Antifungal MIC80 assay, clinical yeast isolates
[19] = tested on: Candida duobushaemulonii 391; assay: Antifungal MIC80 assay, clinical yeast isolates
[20] = tested on: Candida duobushaemulonii 392; assay: Antifungal MIC80 assay, clinical yeast isolates
[21] = tested on: Candida duobushaemulonii 394; assay: Antifungal MIC80 assay, clinical yeast isolates
[22] = tested on: Kodameae ohmeri 396; assay: Antifungal MIC80 assay, clinical yeast isolates
[23] = tested on: Candida albicans ATCC 10231; assay: Antifungal MIC80/MFC assay, fungal pathogen panel; details: ATCC10231
[24] = tested on: Candida tropicalis ATCC750 (Y-12699); assay: Antifungal MIC80/MFC assay, fungal pathogen panel
[25] = tested on: Candida krusei ATCC 6258 (Y-7179); assay: Antifungal MIC80/MFC assay, fungal pathogen panel
[26] = tested on: Cryptococcus neoformans H99; assay: Antifungal MIC80/MFC assay, fungal pathogen panel
[27] = tested on: Aspergillus fumigatus NRRL6113; assay: Antifungal MIC80/MFC assay, fungal pathogen panel
[28] = tested on: Curvularia lunata NRRL6409; assay: Antifungal MIC80/MFC assay, fungal pathogen panel
[29] = tested on: Rhizopus oryzae FGSC 9543; assay: Antifungal MIC80/MFC assay, fungal pathogen panel
[30] = tested on: Fusarium solani 243G2; assay: Antifungal MIC80/MFC assay, fungal pathogen panel
[31] = tested on: Paecilomyces lilacinus 165E10; assay: Antifungal MIC80/MFC assay, fungal pathogen panel
[32] = tested on: Fusarium tricinctum; assay: MIC/MFC against phytopathogenic (endophytic) fungi
[33] = 0% serum (v/v) in growth medium
[34] = 5% serum (v/v) in growth medium
[35] = 10% serum (v/v) in growth medium
[36] = Purpureocillium lilacinum, 165E10
[37] = Candida tropicalis ATCC750 (Y-12699)
[38] = Candida krusei ATCC 6258 (Y-7179)

Compound: CC[C@H](C)C[C@H](C)C[C@H](C)C[C@@H]1NC(=O)[C@H](C(C)C)N(C)C(=O)[C@@H]([C@H](C)CC)OC(=O)[C@H](C(C)(C)O)N(C)C(=O)[C@H](CC(C)C)NC(=O)[C@H](C(C)C)N(C)C(=O)[C@H]([C@H](C)CC)NC(=O)[C@@H]2CCCN2C(=O)CN(C)C1=O [Compound 1, persephacin] (cyclo(L[NMeVal(β-OH)][X1][NMeV][X2][Sar]P[aIle][NMeV]))
MIC80 [1, 33]: 2.5 µM (≈ 2.69 µg/mL) | MIC80 [1, 34]: 2.5 µM (≈ 2.69 µg/mL) | MIC80 [1, 35]: 2.5 µM (≈ 2.69 µg/mL) | MIC80 ([2]; Candida albicans, SC5314, Candida albicans SC5314, 0% serum (v/v) in growth medium): 0.6 µM (≈ 0.645 µg/mL) | MIC80 ([2]; Candida albicans, SC5314, Candida albicans SC5314, 5% serum (v/v) in growth medium): 0.15 µM (≈ 0.161 µg/mL) | MIC80 ([2]; Candida albicans, SC5314, Candida albicans SC5314, 10% serum (v/v) in growth medium): 0.3 µM (≈ 0.323 µg/mL) | MIC80 [3, 34]: 1.25 µM (≈ 1.34 µg/mL) | MIC80 [3, 35]: 1.25 µM (≈ 1.34 µg/mL) | MIC80 ([3]; Candidozyma auris, 0% serum (v/v) in growth medium): 1.25 µM (≈ 1.34 µg/mL) | MIC80 ([4]; Cryptococcus neoformans, H99, Cryptococcus neoformans H99, 0% serum (v/v) in growth medium): 0.6 µM (≈ 0.645 µg/mL) | MIC80 ([4]; Cryptococcus neoformans, H99, Cryptococcus neoformans H99, 5% serum (v/v) in growth medium): < 0.15 µM | MIC80 ([4]; Cryptococcus neoformans, H99, Cryptococcus neoformans H99, 10% serum (v/v) in growth medium): < 0.15 µM | MIC80 [5]: 2.5 µM (≈ 2.69 µg/mL) | MIC80 [6]: 2.5 µM (≈ 2.69 µg/mL) | MIC80 [7]: 0.6 µM (≈ 0.645 µg/mL) | MIC80 [8]: 2.5 µM (≈ 2.69 µg/mL) | MIC80 [9]: 0.6 µM (≈ 0.645 µg/mL) | MIC80 [10]: 5 µM (≈ 5.38 µg/mL) | MIC80 ([11]; Nakaseomyces glabratus, 17): 0.15 µM (≈ 0.161 µg/mL) | MIC80 ([12]; Nakaseomyces glabratus, 20): 0.3 µM (≈ 0.323 µg/mL) | MIC80 ([13]; Lodderomyces parapsilosis, 23): 2.5 µM (≈ 2.69 µg/mL) | MIC80 ([14]; Lodderomyces parapsilosis, 28): 2.5 µM (≈ 2.69 µg/mL) | MIC80 ([15]; Candidozyma auris, 381): 2.5 µM (≈ 2.69 µg/mL) | MIC80 ([16]; Candidozyma auris, 384): 2.5 µM (≈ 2.69 µg/mL) | MIC80 ([17]; Candidozyma auris, 387): 2.5 µM (≈ 2.69 µg/mL) | MIC80 ([18]; Candidozyma auris, 389): 2.5 µM (≈ 2.69 µg/mL) | MIC80 ([19]; Candidozyma duobushaemuli, 391): 2.5 µM (≈ 2.69 µg/mL) | MIC80 ([20]; Candidozyma duobushaemuli, 392): 2.5 µM (≈ 2.69 µg/mL) | MIC80 ([21]; Candidozyma duobushaemuli, 394): 2.5 µM (≈ 2.69 µg/mL) | MIC80 [22]; 396: 2.5 µM (≈ 2.69 µg/mL) | MFC [23]: 1.25 µM (≈ 1.34 µg/mL) | MIC80 [23]: 0.6 µM (≈ 0.645 µg/mL) | MFC ([24]; Candida tropicalis, ATCC750): 2.5 µM (≈ 2.69 µg/mL) | MIC80 ([24]; Candida tropicalis, ATCC750): 1.25 µM (≈ 1.34 µg/mL) | MFC ([25]; Pichia kudriavzevii, ATCC6258): 2.5 µM (≈ 2.69 µg/mL) | MIC80 ([25]; Pichia kudriavzevii, ATCC6258): 1.25 µM (≈ 1.34 µg/mL) | MFC [26]: 2.5 µM (≈ 2.69 µg/mL) | MIC80 [26]: 0.6 µM (≈ 0.645 µg/mL) | MFC [27]: 5 µM (≈ 5.38 µg/mL) | MIC80 [27]: 2.5 µM (≈ 2.69 µg/mL) | MFC [28]: 0.6 µM (≈ 0.645 µg/mL) | MIC80 [28]: 0.3 µM (≈ 0.323 µg/mL) | MFC ([29]; Rhizopus arrhizus, FGSC9543): > 10 µM | MIC80 ([29]; Rhizopus arrhizus, FGSC9543): > 10 µM | MFC [30]: 2.5 µM (≈ 2.69 µg/mL) | MIC80 [30]: 1.25 µM (≈ 1.34 µg/mL) | MFC [31, 36]: > 10 µM | MIC80 [31, 36]: 2.5 µM (≈ 2.69 µg/mL) | MFC [32]: 10 µM (≈ 10.8 µg/mL) | MIC [32]: 5 µM (≈ 5.38 µg/mL)

MIC80 [1, 33]: 2.5 µM (≈ 2.31 µg/mL) | MIC80 [1, 34]: <0.07 µM | MIC80 [1, 35]: 0.15 µM (≈ 0.139 µg/mL) | MIC80 ([2]; Candida albicans SC5314, 0% serum (v/v) in growth medium): 0.6 µM (≈ 0.554 µg/mL) | MIC80 ([2]; Candida albicans SC5314, 5% serum (v/v) in growth medium): <0.15 µM | MIC80 ([2]; Candida albicans SC5314, 10% serum (v/v) in growth medium): <0.15 µM | MIC80 [3, 33]: 2.5 µM (≈ 2.31 µg/mL) | MIC80 [3, 34]: <0.15 µM | MIC80 [3, 35]: 0.3 µM (≈ 0.277 µg/mL) | MIC80 ([4]; Cryptococcus neoformans H99, 0% serum (v/v) in growth medium): 1.25 µM (≈ 1.16 µg/mL) | MIC80 ([4]; Cryptococcus neoformans H99, 5% serum (v/v) in growth medium): <0.15 µM | MIC80 ([4]; Cryptococcus neoformans H99, 10% serum (v/v) in growth medium): <0.15 µM | MIC80 [5]: 0.6 µM (≈ 0.554 µg/mL) | MIC80 [6]: 0.6 µM (≈ 0.554 µg/mL) | MIC80 [7]: 0.6 µM (≈ 0.554 µg/mL) | MIC80 [8]: 0.6 µM (≈ 0.554 µg/mL) | MIC80 [9]: 1.25 µM (≈ 1.16 µg/mL) | MIC80 [10]: 2.5 µM (≈ 2.31 µg/mL) | MIC80 ([11]; Candida glabrata 17): 0.3 µM (≈ 0.277 µg/mL) | MIC80 ([12]; Candida glabrata 20): 0.6 µM (≈ 0.554 µg/mL) | MIC80 ([13]; Candida parapsilosis 23): 1.25 µM (≈ 1.16 µg/mL) | MIC80 ([14]; Candida parapsilosis 28): 1.25 µM (≈ 1.16 µg/mL) | MIC80 ([15]; Candida auris 381, multidrug-resistant): 1.25 µM (≈ 1.16 µg/mL) | MIC80 ([16]; Candida auris 384, multidrug-resistant): 2.5 µM (≈ 2.31 µg/mL) | MIC80 ([17]; Candida auris 387, multidrug-resistant): 2.5 µM (≈ 2.31 µg/mL) | MIC80 ([18]; Candida auris 389, multidrug-resistant): 5 µM (≈ 4.62 µg/mL) | MIC80 ([19]; Candida duobushaemulonii 391, multidrug-resistant): 5 µM (≈ 4.62 µg/mL) | MIC80 ([20]; Candida duobushaemulonii 392, multidrug-resistant): 5 µM (≈ 4.62 µg/mL) | MIC80 ([21]; Candida duobushaemulonii 394, multidrug-resistant): 5 µM (≈ 4.62 µg/mL) | MIC80 ([22]; Kodameae ohmeri 396, multidrug-resistant): 1.25 µM (≈ 1.16 µg/mL) | MIC80 [23]: 0.6 µM (≈ 0.554 µg/mL) | MIC80 [24, 37]: 1.25 µM (≈ 1.16 µg/mL) | MIC80 [25, 38]: 2.5 µM (≈ 2.31 µg/mL) | MIC80 [26]: 1.25 µM (≈ 1.16 µg/mL) | MIC80 [27]: 2.5 µM (≈ 2.31 µg/mL) | MIC80 [28]: 0.3 µM (≈ 0.277 µg/mL) | MIC80 ([29]; Rhizopus oryzae FGSC 9543): 0.3 µM (≈ 0.277 µg/mL) | MIC80 [30]: 1.25 µM (≈ 1.16 µg/mL) | MIC80 ([31]; Paecilomyces lilacinus 165E10): >10 µM
Compound: C[C@@H]1[C@H](O)[C@@H](C)/C=C/C=C/C=C/C=C/C=C/C=C/C=C/[C@H](O[C@@H]2O[C@H](C)[C@@H](O)[C@H](N)[C@@H]2O)C[C@@H]2O[C@](O)(C[C@@H](O)C[C@@H](O)[C@H](O)CC[C@@H](O)C[C@@H](O)CC(=O)O[C@H]1C)C[C@H](O)[C@H]2C(=O)O [AMB, amphotericin B]
MFC [23]: 2.5 µM (≈ 2.31 µg/mL) | MFC [24, 37]: 2.5 µM (≈ 2.31 µg/mL) | MFC [25, 38]: 5 µM (≈ 4.62 µg/mL) | MFC [26]: 2.5 µM (≈ 2.31 µg/mL) | MFC [27]: 10 µM (≈ 9.24 µg/mL) | MFC [28]: 2.5 µM (≈ 2.31 µg/mL) | MFC ([29]; Rhizopus oryzae FGSC 9543): 0.3 µM (≈ 0.277 µg/mL) | MFC [30]: 1.25 µM (≈ 1.16 µg/mL) | MFC ([31]; Paecilomyces lilacinus 165E10): >10 µM
